Numbered stars: 1 amine (or outer) side, 2 acyl side, 3 side chain; on linkers, the order of the positions; unused ones are H or OH. Square brackets hold non-standard residues; d marks the D form. Side chains are listed from the residue outwards. Peptide text beside a SMILES is read from it. * marks the point of attachment. C20 diacid = O=C(O)CCCCCCCCCCCCCCCCCCC(=O)*; γGlu = O=C(O)[C@H](CCC(=O)[*:2])N[*:1]; Desaminotyrosyl = O=C(CCc1ccc(O)cc1)*; αMeF = C[C@](N)(Cc1ccccc1)C(=O)O; Aad = N[C@@H](CCCC(=O)O)C(=O)O; αMeL = CC(C)C[C@](C)(N)C(=O)O; AEEA = NCCOCCOCC(=O)O; Aib = CC(C)(N)C(=O)O
Legend:
human Gcg receptor = target: T1, human Gcg receptor (Homo sapiens, UniProt P47871); test: [125I]-Glucagon binding (SPA), human Gcg receptor; conditions: read-out: hGLcgR Ki, nM (SEM, n)
T1 construct: expressed in transfected cells; crude membranes
T1 sequence (P47871 26-477): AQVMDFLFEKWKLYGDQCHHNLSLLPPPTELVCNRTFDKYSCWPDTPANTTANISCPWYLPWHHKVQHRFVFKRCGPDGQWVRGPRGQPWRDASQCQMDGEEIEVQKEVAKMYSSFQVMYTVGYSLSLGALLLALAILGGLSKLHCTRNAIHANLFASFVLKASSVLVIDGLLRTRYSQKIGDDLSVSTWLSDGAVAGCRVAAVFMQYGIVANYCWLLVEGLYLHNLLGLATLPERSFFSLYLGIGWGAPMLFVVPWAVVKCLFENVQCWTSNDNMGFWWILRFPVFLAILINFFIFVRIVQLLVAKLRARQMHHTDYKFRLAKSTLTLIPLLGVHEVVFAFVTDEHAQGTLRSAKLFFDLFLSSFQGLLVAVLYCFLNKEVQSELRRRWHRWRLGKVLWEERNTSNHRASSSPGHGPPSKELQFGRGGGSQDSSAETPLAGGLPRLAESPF
Method in brief: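 Crude membranes from cells expressing the receptor, prepared by hypotonic lysis in 50 mM Tris HCl pH 7.5 with protease inhibitors, homogenization and differential centrifugation, were used in a WGA-bead SPA. Binding buffer: 25 mM HEPES pH 7.4, 2.5 mM CaCl2, 1 mM MgCl2, bacitracin, Tween-20.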

human GIP receptor = target: T2, human GIP receptor (Homo sapiens, UniProt P48546); test: [125I]-GIP binding (SPA), human GIP receptor; conditions: read-out: hGIPR Ki, nM (SEM, n)
T2 construct: expressed in transfected cells; crude membranes
T2 sequence (P48546 22-466): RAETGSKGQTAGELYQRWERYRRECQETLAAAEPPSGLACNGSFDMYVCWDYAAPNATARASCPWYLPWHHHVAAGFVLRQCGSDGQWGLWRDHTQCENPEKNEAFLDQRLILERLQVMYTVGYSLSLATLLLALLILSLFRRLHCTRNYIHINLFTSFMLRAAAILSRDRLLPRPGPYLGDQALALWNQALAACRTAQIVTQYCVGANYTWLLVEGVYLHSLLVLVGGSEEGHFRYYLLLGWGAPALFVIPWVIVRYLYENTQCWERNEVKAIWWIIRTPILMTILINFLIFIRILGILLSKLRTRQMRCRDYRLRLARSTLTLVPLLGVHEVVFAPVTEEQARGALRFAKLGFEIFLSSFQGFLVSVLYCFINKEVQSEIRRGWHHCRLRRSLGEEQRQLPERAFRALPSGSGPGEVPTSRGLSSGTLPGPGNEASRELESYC

[1] = target: human GLP-1 receptor (GLP-1R) (Homo sapiens, UniProt P43220); test: cAMP pharmacological functional assay in presence of casein, hGLP-1R; assay type: cell-based; conditions: HEK293 cells expressing hGLP-1R, 0.1% Casein, geometric mean; read-out: hGLP1R cAMP Rel EC50 nM (SEM, n)
Sequence of human GLP-1 receptor (GLP-1R) (P43220 24-463): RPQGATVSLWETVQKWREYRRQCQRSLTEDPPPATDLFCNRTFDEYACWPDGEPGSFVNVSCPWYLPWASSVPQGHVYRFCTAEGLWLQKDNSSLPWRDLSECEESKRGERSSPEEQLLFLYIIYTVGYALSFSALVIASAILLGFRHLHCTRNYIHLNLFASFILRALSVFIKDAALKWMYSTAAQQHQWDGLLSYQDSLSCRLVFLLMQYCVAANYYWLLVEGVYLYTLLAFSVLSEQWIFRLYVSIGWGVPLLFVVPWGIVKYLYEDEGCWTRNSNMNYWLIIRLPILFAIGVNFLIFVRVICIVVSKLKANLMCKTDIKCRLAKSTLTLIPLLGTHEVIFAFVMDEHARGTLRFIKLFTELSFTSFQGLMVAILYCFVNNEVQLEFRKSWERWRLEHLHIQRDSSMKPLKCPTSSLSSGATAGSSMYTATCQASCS

[2] = target: T3, gastric inhibitory peptide receptor (GIPR) (Homo sapiens, UniProt P48546); test: cAMP pharmacological functional assay in presence of casein, hGIPR; assay type: cell-based; conditions: HEK293 cells expressing hGIPR, 0.1% Casein, geometric mean; read-out: hGIPR cAMP Rel EC50 nM (SEM, n)
T3 sequence (P48546 22-466): T2 sequence (P48546 22-466)

human GLP-1R = human GLP-1R (Homo sapiens, UniProt P43220); test: [125I]-GLP-1 binding (SPA), human GLP-1 receptor; parameters: expressed in transfected cells; crude membranes; conditions: read-out: hGLP1R Ki, (nM) (SEM, n)
Sequence of human GLP-1R (P43220 24-463): as above
Method in brief: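 Assay buffer: HEPES 25 mM, pH 7.4, CaCl2 2.5 mM, MgCl2 1 mM, with EDTA-free protease inhibitors. Receptor came from crude cell membranes prepared by homogenization and centrifugation at 4° C. IC50s came from four-parameter fits (maximum, minimum, IC50, Hill slope) and were expressed as Ki geometric means with SEM.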

SMILES	Ki (human Gcg receptor) [nM]	Ki (human GIP receptor) [nM]	EC50 [1] [nM]	EC50 [2] [nM]	Ki (human GLP-1R) [nM]
CC[C@H](C)[C@H](NC(=O)[C@H](CC(C)C)NC(=O)[C@H](Cc1ccc(O)cc1)NC(=O)[C@H](CCC(=O)O)NC(=O)[C@@H](NC(=O)[C@H](Cc1ccccc1)NC(=O)[C@H](C)NC(=O)C(C)(C)NC(=O)[C@H](CCC(N)=O)NC(=O)[C@H](C)NC(=O)[C@H](CCCCNC(=O)COCCOCCNC(=O)COCCOCCNC(=O)CC[C@H](NC(=O)CCCCCCCCCCCCCCCCCCC(=O)O)C(=O)O)NC(=O)[C@H](CCC(=O)O)NC(=O)[C@H](CC(=O)O)NC(=O)[C@H](CC(C)C)NC(=O)C(C)(C)NC(=O)[C@@H](NC(=O)[C@H](CO)NC(=O)[C@H](Cc1ccc(O)cc1)NC(=O)[C@H](CC(=O)O)NC(=O)[C@H](CO)NC(=O)[C@@H](NC(=O)[C@](C)(Cc1ccccc1)NC(=O)[C@@H](NC(=O)CNC(=O)[C@H](CCC(=O)O)NC(=O)C(C)(C)NC(=O)CCc1ccc(O)cc1)[C@@H](C)O)[C@@H](C)O)[C@@H](C)CC)[C@@H](C)CC)C(=O)N[C@@H](CCC(=O)O)C(=O)NCC(=O)NCC(=O)N1CCC[C@H]1C(=O)N[C@@H](CO)C(=O)N[C@@H](CO)C(=O)NCC(=O)N[C@@H](C)C(=O)N1CCC[C@H]1C(=O)N1CCC[C@H]1C(=O)N1CCC[C@H]1C(=O)N[C@@H](CO)C(N)=O [Example 133] (Desaminotyrosyl-[Aib]EGT[αMeF]TSDYSI[Aib]LDEK([AEEA-AEEA-γGlu-C20 diacid])AQ[Aib]AFIEYLIEGGPSSGAPPPS-NH2)	216	0.157	0.0436	0.0879	11.4
CC[C@H](C)[C@H](NC(=O)[C@H](CC(C)C)NC(=O)[C@H](Cc1ccc(O)cc1)NC(=O)[C@H](CCC(=O)O)NC(=O)[C@@H](NC(=O)[C@H](Cc1ccccc1)NC(=O)[C@H](C)NC(=O)C(C)(C)NC(=O)[C@H](CCC(N)=O)NC(=O)[C@H](C)NC(=O)[C@H](CCCCNC(=O)COCCOCCNC(=O)COCCOCCNC(=O)CC[C@H](NC(=O)CCCCCCCCCCCCCCCCCCC(=O)O)C(=O)O)NC(=O)[C@H](CCCCN)NC(=O)[C@H](CC(=O)O)NC(=O)[C@H](CC(C)C)NC(=O)[C@H](CC(C)C)NC(=O)[C@@H](NC(=O)[C@H](CO)NC(=O)[C@H](Cc1ccc(O)cc1)NC(=O)[C@H](CC(=O)O)NC(=O)[C@H](CO)NC(=O)[C@@H](NC(=O)[C@H](Cc1ccccc1)NC(=O)[C@@H](NC(=O)CNC(=O)[C@H](CC(N)=O)NC(=O)C(C)(C)NC(=O)[C@@H](N)Cc1c[nH]cn1)[C@@H](C)O)[C@@H](C)O)[C@@H](C)CC)[C@@H](C)CC)C(=O)N[C@@H](CCC(=O)O)C(=O)NCC(=O)NCC(=O)N1CCC[C@H]1C(=O)N[C@@H](CO)C(=O)N[C@@H](CO)C(=O)NCC(=O)N[C@@H](C)C(=O)N1CCC[C@H]1C(=O)N1CCC[C@H]1C(=O)N1CCC[C@H]1C(=O)N[C@@H](CO)C(N)=O [Example 135] (H-H[Aib]NGTFTSDYSILLDKK([AEEA-AEEA-γGlu-C20 diacid])AQ[Aib]AFIEYLIEGGPSSGAPPPS-NH2)	454	0.161	0.131	0.373	3.01
CC[C@H](C)[C@H](NC(=O)[C@H](CC(C)C)NC(=O)[C@H](Cc1ccc(O)cc1)NC(=O)[C@H](CCC(=O)O)NC(=O)[C@@H](NC(=O)[C@H](Cc1ccccc1)NC(=O)[C@H](CCCC(=O)O)NC(=O)C(C)(C)NC(=O)[C@H](CCC(N)=O)NC(=O)[C@H](C)NC(=O)[C@H](CCCCNC(=O)COCCOCCNC(=O)COCCOCCNC(=O)CC[C@H](NC(=O)CCCCCCCCCCCCCCCCCCC(=O)O)C(=O)O)NC(=O)[C@H](CCCCN)NC(=O)[C@H](CC(=O)O)NC(=O)[C@H](CC(C)C)NC(=O)[C@](C)(CC(C)C)NC(=O)[C@@H](NC(=O)[C@H](CO)NC(=O)[C@H](Cc1ccc(O)cc1)NC(=O)[C@H](CC(=O)O)NC(=O)[C@H](CO)NC(=O)[C@@H](NC(=O)[C@](C)(Cc1ccccc1)NC(=O)[C@@H](NC(=O)CNC(=O)[C@H](CCC(=O)O)NC(=O)C(C)(C)NC(=O)[C@@H](N)Cc1ccc(O)cc1)[C@@H](C)O)[C@@H](C)O)[C@@H](C)CC)[C@@H](C)CC)C(=O)N[C@@H](CCC(=O)O)C(=O)NCC(=O)NCC(=O)N1CCC[C@H]1C(=O)N[C@@H](CO)C(=O)N[C@@H](CO)C(=O)NCC(=O)N[C@@H](C)C(=O)N1CCC[C@H]1C(=O)N1CCC[C@H]1C(=O)N1CCC[C@H]1C(=O)N[C@@H](CO)C(N)=O [Example 137] (H-Y[Aib]EGT[αMeF]TSDYSI[αMeL]LDKK([AEEA-AEEA-γGlu-C20 diacid])AQ[Aib][Aad]FIEYLIEGGPSSGAPPPS-NH2)	98.1	0.0373	0.0397	0.0333	1.24
CC[C@H](C)[C@H](NC(=O)[C@H](CC(C)C)NC(=O)[C@H](Cc1ccc(O)cc1)NC(=O)[C@H](CCC(=O)O)NC(=O)[C@@H](NC(=O)[C@H](Cc1ccccc1)NC(=O)[C@H](CO)NC(=O)C(C)(C)NC(=O)[C@H](CCC(N)=O)NC(=O)[C@H](C)NC(=O)[C@H](CCCCNC(=O)COCCOCCNC(=O)COCCOCCNC(=O)CC[C@H](NC(=O)CCCCCCCCCCCCCCCCCCC(=O)O)C(=O)O)NC(=O)[C@H](CCCCN)NC(=O)[C@H](CC(=O)O)NC(=O)[C@H](CC(C)C)NC(=O)[C@](C)(CC(C)C)NC(=O)[C@@H](NC(=O)[C@H](CO)NC(=O)[C@H](Cc1ccc(O)cc1)NC(=O)[C@H](CC(=O)O)NC(=O)[C@H](CO)NC(=O)[C@@H](NC(=O)[C@](C)(Cc1ccccc1)NC(=O)[C@@H](NC(=O)CNC(=O)[C@H](CCC(=O)O)NC(=O)C(C)(C)NC(=O)[C@@H](N)Cc1ccc(O)cc1)[C@@H](C)O)[C@@H](C)O)[C@@H](C)CC)[C@@H](C)CC)C(=O)N[C@@H](CCC(=O)O)C(=O)NCC(=O)NCC(=O)N1CCC[C@H]1C(=O)N[C@@H](CO)C(=O)N[C@@H](CO)C(=O)NCC(=O)N[C@@H](C)C(=O)N1CCC[C@H]1C(=O)N1CCC[C@H]1C(=O)N1CCC[C@H]1C(=O)N[C@@H](CO)C(N)=O [Example 138] (H-Y[Aib]EGT[αMeF]TSDYSI[αMeL]LDKK([AEEA-AEEA-γGlu-C20 diacid])AQ[Aib]SFIEYLIEGGPSSGAPPPS-NH2; N-terminus assumed)	61.2	0.0295	0.0471	0.0581	0.926
CC[C@H](C)[C@H](NC(=O)[C@H](CC(C)C)NC(=O)[C@H](Cc1ccc(O)cc1)NC(=O)[C@H](CCC(=O)O)NC(=O)[C@@H](NC(=O)[C@H](Cc1ccccc1)NC(=O)[C@H](CC(=O)O)NC(=O)C(C)(C)NC(=O)[C@H](CCC(N)=O)NC(=O)[C@H](C)NC(=O)[C@H](CCCCNC(=O)COCCOCCNC(=O)COCCOCCNC(=O)CC[C@H](NC(=O)CCCCCCCCCCCCCCCCCCC(=O)O)C(=O)O)NC(=O)[C@H](CCCCN)NC(=O)[C@H](CC(=O)O)NC(=O)[C@H](CC(C)C)NC(=O)[C@](C)(CC(C)C)NC(=O)[C@@H](NC(=O)[C@H](CO)NC(=O)[C@H](Cc1ccc(O)cc1)NC(=O)[C@H](CC(=O)O)NC(=O)[C@H](CO)NC(=O)[C@@H](NC(=O)[C@](C)(Cc1ccccc1)NC(=O)[C@@H](NC(=O)CNC(=O)[C@H](CCC(=O)O)NC(=O)C(C)(C)NC(=O)[C@@H](N)Cc1ccc(O)cc1)[C@@H](C)O)[C@@H](C)O)[C@@H](C)CC)[C@@H](C)CC)C(=O)N[C@@H](CCC(=O)O)C(=O)NCC(=O)NCC(=O)N1CCC[C@H]1C(=O)N[C@@H](CO)C(=O)N[C@@H](CO)C(=O)NCC(=O)N[C@@H](C)C(=O)N1CCC[C@H]1C(=O)N1CCC[C@H]1C(=O)N1CCC[C@H]1C(=O)N[C@@H](CO)C(N)=O [Example 140] (H-Y[Aib]EGT[αMeF]TSDYSI[αMeL]LDKK([AEEA-AEEA-γGlu-C20 diacid])AQ[Aib]DFIEYLIEGGPSSGAPPPS-NH2)	175	0.0474	0.0424	0.0349	1.46
